In ChEMBL document CHEMBL5126603, “Discovery of Clinical Candidate CHF-6366: A Novel Super-soft Dual Pharmacology Muscarinic Antagonist and β2 Agonist (MABA) for the Inhaled Treatment of Respiratory Diseases” (J Med Chem, 2022):

Legend:
[1] = tested on: Trachea; experiment: (§1) Bifunctional antagonist activity at muscarinic M3 receptor /agonist activity at beta-2 adrenoceptor in Dunkin-Hartley guinea pig trachea assessed as inhibition of acetylcholine induced bronchoconstriction at 0.3 nmol/Kg, IT(Intratracheal) measured after 1 hr by Konzett-Roessler methodology relative to control; assay type: functional; conditions: Cavia porcellus
[2] = target: 5-hydroxytryptamine receptor 1B (Homo sapiens) (UniProt P28222); experiment: Inhibition of 5-HT1B receptor (unknown origin) at 10 uM relative to control
Chain of 5-hydroxytryptamine receptor 1B (Homo sapiens) (P28222 whole entry): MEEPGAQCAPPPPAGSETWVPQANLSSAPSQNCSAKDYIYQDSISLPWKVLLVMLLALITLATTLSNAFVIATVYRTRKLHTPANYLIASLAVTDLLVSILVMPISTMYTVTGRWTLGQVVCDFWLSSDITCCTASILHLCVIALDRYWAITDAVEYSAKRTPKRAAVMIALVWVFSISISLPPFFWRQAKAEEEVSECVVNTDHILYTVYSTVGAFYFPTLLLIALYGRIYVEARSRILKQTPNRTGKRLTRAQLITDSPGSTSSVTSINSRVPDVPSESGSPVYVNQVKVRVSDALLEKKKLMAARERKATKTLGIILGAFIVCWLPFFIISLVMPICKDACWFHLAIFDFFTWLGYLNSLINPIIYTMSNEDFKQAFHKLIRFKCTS

[3] = Apparent permeability across apical to basolateral side in human Caco-2 cells at 10 uM and measured after 2 hrs by LC-MS/MS analysis; assay type: ADME, cell-based
[4] = Cmax in Dunkin-Hartley guinea pig lung at 500 nmol/Kg, IT(Intratracheal) measured after 72 hrs by LC/MS-MS analysis; assay type: ADME, tissue-based, Cavia porcellus; parameters: time 72 hrs, dose 500 nmol/kg, route it(Intratracheal); conditions: inhaled or intranasal
[5] = tested on: Trachea; experiment: as §1, with “acetylcholine-induced” for “acetylcholine induced”, “1” for “0.3”, “15 mins” for “1 hr”; assay type: functional; conditions: Cavia porcellus, 0.25 h
[6] = tested on: Trachea; experiment: as §1, with “acetylcholine-induced” for “acetylcholine induced”, “5 mins” for “1 hr”; assay type: functional; conditions: Cavia porcellus
[7] = Apparent permeability across basolateral to apical side in human Caco-2 cells at 10 uM and measured after 2 hrs by LC-MS/MS analysis; assay type: ADME, cell-based
[8] = tested on: Trachea; experiment: as §1, with “acetylcholine-induced” for “acetylcholine induced”, “0.1” for “0.3”, “15 mins” for “1 hr”; assay type: functional; conditions: Cavia porcellus, 0.25 h
[9] = Mutagenicity in Salmonella typhimurium assessed as induction of reverse mutation by Ames test; assay type: toxicity; conditions: salmonella enterica subsp. enterica serovar typhimurium
[10] = tested on: Trachea; experiment: as §1, with “acetylcholine-induced” for “acetylcholine induced”, “15 mins” for “1 hr”; assay type: functional; conditions: Cavia porcellus, 0.25 h
[11] = tested on: Trachea; experiment: as §1, with “acetylcholine-induced” for “acetylcholine induced”, “1” for “0.3”, “5 mins” for “1 hr”; assay type: functional; conditions: Cavia porcellus
[12] = target: Sodium-dependent serotonin transporter (Homo sapiens) (UniProt P31645); experiment: Inhibition of serotonin transporter (unknown origin) at 10 uM relative to control
Chain of Sodium-dependent serotonin transporter (Homo sapiens) (P31645 whole entry, looked up): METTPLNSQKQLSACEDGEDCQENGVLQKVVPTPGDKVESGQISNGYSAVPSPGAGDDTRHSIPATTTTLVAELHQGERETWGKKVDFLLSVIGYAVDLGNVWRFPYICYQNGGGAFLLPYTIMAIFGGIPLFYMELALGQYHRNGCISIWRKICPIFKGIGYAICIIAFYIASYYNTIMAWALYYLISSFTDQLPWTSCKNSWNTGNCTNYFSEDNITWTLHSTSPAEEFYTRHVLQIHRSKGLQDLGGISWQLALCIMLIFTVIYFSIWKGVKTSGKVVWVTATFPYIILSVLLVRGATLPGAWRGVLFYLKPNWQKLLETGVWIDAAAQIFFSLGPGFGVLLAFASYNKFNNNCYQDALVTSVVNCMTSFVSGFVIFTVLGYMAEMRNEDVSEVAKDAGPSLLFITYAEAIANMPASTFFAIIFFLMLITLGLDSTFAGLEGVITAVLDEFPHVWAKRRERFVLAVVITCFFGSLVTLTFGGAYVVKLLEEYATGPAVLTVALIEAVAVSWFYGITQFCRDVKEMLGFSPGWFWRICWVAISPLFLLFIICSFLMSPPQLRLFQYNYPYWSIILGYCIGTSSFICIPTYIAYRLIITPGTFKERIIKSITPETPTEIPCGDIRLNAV

[13] = Efflux ratio of apparent permeability from basolateral to apical side over apical to basolateral side in human Caco-2 cells at 10 uM and measured after 2 hrs by LC-MS/MS analysis; assay type: ADME, cell-based
[14] = AUClast in Dunkin-Hartley guinea pig lung at 500 nmol/Kg, IT(Intratracheal) measured after 72 hrs by LC/MS-MS analysis; assay type: ADME, tissue-based, Cavia porcellus; conditions: in vivo, inhaled_or_intranasal
[15] = Toxicity in INH dosed dog assessed as maximum tolerated dose measured after 7 days; assay type: organism-based, Canis lupus familiaris; conditions: in vivo, inhaled or intranasal, time 7 day
[16] = target: 5-hydroxytryptamine receptor 2A (Homo sapiens) (UniProt P28223); experiment: Inhibition of 5-HT2a (unknown origin) at 10 uM relative to control
Chain of 5-hydroxytryptamine receptor 2A (Homo sapiens) (P28223 whole entry): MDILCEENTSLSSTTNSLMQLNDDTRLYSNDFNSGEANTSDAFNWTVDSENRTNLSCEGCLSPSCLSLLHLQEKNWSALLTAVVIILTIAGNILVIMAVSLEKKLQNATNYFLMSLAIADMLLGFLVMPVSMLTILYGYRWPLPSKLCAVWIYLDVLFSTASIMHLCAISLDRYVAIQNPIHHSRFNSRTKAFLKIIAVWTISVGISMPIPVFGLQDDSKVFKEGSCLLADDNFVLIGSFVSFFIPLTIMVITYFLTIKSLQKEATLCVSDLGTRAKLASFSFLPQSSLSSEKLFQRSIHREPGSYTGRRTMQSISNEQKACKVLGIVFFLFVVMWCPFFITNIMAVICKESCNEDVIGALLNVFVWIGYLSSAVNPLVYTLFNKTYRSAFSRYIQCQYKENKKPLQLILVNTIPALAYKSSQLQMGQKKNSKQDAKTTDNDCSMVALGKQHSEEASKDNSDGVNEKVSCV

[17] = Metabolic stability in rat lung S9 fraction assessed as half life at 1 uM measured after 0 to 60 mins in presence of NADPH by LC-MS/MS analysis; assay type: ADME, subcellular; conditions: time 0-60 min
[18] = Half life in Dunkin-Hartley guinea pig plasma at 500 nmol/Kg, IT(Intratracheal) measured after 72 hrs by LC/MS-MS analysis; assay type: ADME, cell-free, Cavia porcellus; conditions: inhaled or intranasal
[19] = tested on: Trachea; experiment: as §1, with “acetylcholine-induced” for “acetylcholine induced”, “30 mins” for “1 hr”; assay type: functional; conditions: Cavia porcellus, 0.5 h
[20] = target: D(2) dopamine receptor (Homo sapiens) (UniProt P14416); experiment: Inhibition of dopamine D2 receptor (unknown origin) at 10 uM relative to control
Chain of D(2) dopamine receptor (Homo sapiens) (P14416 whole entry): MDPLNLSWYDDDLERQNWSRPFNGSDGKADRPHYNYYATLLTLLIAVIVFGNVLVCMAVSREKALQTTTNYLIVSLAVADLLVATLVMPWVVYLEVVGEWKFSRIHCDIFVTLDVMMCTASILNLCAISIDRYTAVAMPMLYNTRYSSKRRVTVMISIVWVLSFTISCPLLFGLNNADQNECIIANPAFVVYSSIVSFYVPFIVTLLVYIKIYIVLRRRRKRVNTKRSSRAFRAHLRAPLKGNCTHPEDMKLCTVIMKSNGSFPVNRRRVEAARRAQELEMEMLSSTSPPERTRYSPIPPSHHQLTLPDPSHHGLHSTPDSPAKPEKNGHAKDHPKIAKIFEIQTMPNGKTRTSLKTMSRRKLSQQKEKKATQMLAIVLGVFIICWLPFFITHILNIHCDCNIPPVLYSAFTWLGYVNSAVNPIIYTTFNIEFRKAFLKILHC

[21] = Metabolic stability in human liver microsomes assessed as clearance at 1 uM measured per mg protein incubated upto 60 mins in presence of NADPH by LC-MS/MS analysis; assay type: ADME, Microsome; conditions: read-out: CLH
[22] = Tmax in Dunkin-Hartley guinea pig lung at 500 nmol/Kg, IT(Intratracheal) measured after 72 hrs by LC/MS-MS analysis; assay type: ADME, tissue-based, Cavia porcellus; conditions: inhaled or intranasal

`Cn1nc(C(=O)OCCCCNC[C@H](O)c2ccc(O)c3[nH]c(=O)ccc23)cc1COc1cccc([C@@H](NC(=O)O[C@H]2CN3CCC2CC3)c2ccccc2)c1` gave an inhibition in vivo at 0.0003 µmol/kg [1] of 58.4%, an inhibition [2] greater than 65% and a Papp A→B at 2 h, 10 µM [3] of 2.4 ×10⁻⁶ cm/s. It also gave a Cmax [4] of 28400 ng/g, an inhibition in vivo at 0.001 µmol/kg [5] of 91.3% and an inhibition in vivo at 0.0003 µmol/kg [6] of 56.6%. The Papp B→A at 2 h, 10 µM [7] was 1.5 ×10⁻⁶ cm/s, the inhibition in vivo at 0.0001 µmol/kg [8] was 25.1% and the Activity [9] was “Non-Toxic”. The inhibition in vivo at 0.0003 µmol/kg [10] was 66.2%, the inhibition in vivo at 0.001 µmol/kg [11] was 90.1% and the inhibition [12] was greater than 65%. It also gave an efflux ratio at 2 h, 10 µM [13] of 0.7, an AUClast [14] of 460361 ng·h/g and an MTD at 168 h [15] of 0.124 mg/kg/day. The inhibition [16] was greater than 65%, the half-life at 1 µM [17] was 30 min and the half-life [18] was 924 min. For the same compound, the inhibition in vivo at 0.0003 µmol/kg [19] was 65.9%, the inhibition [20] was greater than 65% and the microsomal CLint at 1 µM [21] was 14 µL/min/mg. For the same compound, the Tmax [22] was 4.98 min.
